In publication PMC3048208 (British Journal of Cancer, 2011):
Structures can show the parent of a compound that is named as a salt. Marks after values point to notes of the source that are not given here.

System: patients with advanced solid tumours
Assay: Phase I safety: DLT and adverse events (CTCAE v3.0)
[1] = All grades, level 1, 10 mg 3 days every 2 weeks, 3 patients
[2] = All grades, level 2, 10 mg, 6 patients
[3] = All grades, level 3, 20 mg, 6 patients
[4] = All grades, level 4, 30 mg, 4 patients
[5] = All grades, level 5, 50 mg, 4 patients
[6] = All grades, level 5.5, 60 mg, 7 patients
[7] = All grades, level 6, 70 mg, 6 patients
[8] = All grades, level 7, 90 mg, 2 patients
[9] = Grades 3/4, level 1, 10 mg 3 days every 2 weeks, 3 patients

## CCCCc1nc2cc(/C=C/C(=O)NO)ccc2n1CCN(CC)CC [SB939, 3-[2-butyl-1-(2-diethylaminoethyl)-1H-benzoimidazol-5-yl]-N-hydroxyacrylami-hydrochloride]
60 mg
  Grade 2 raised AST and hyperbilirubinemia, no. of patients: 3
  Grade 3 ALT rise, no. of patients: two
70 mg
  Dose reductions, patients: 2 of 6
90 mg
  Dose reductions, patients: 2 of 2
[1]
  ALT (raised), no. of patients: 0
  AST (raised), no. of patients: 1
  Abdominal pain, no. of patients: 0
  Alkaline phophatase (raised), no. of patients: 1
  Altered taste, no. of patients: 0
  Anaemia, no. of patients: 2
  Anorexia, no. of patients: 0
  Bilirubin (raised), no. of patients: 0
  Cardiac arrythmia other, no. of patients: 0
  Cardiac dysfunction, no. of patients: 0
  Cardiac ischaemia, no. of patients: 0
  Constipation, no. of patients: 0
  Creatinine (raised), no. of patients: 0
  Diarrhoea, no. of patients: 0
  Fatigue, no. of patients: 0
  Leukopenia, no. of patients: 1
  Lymphopenia, no. of patients: 0
  Mucositis, no. of patients: 1
  Myositis, no. of patients: 0
  Nausea, no. of patients: 0
  Neutropenia, no. of patients: 1
  QT prolongation, no. of patients: 0
  Supra ventricular arrythmia, no. of patients: 0
  Syncope, no. of patients: 0
  Thrombocytopenia, no. of patients: 0
  Ventricular arrythmias (PVCs), no. of patients: 0
  Ventricular bigemini, no. of patients: 0
  Vomiting, no. of patients: 0
[2]
  ALT (raised), no. of patients: 1
  AST (raised), no. of patients: 3
  Abdominal pain, no. of patients: 0
  Alkaline phophatase (raised), no. of patients: 5
  Altered taste, no. of patients: 0
  Anaemia, no. of patients: 6
  Anorexia, no. of patients: 0
  Bilirubin (raised), no. of patients: 1
  CPK, no. of patients: 0
  Cardiac arrythmia other, no. of patients: 0
  Cardiac dysfunction, no. of patients: 0
  Cardiac ischaemia, no. of patients: 0
  Constipation, no. of patients: 0
  Creatinine (raised), no. of patients: 1
  Diarrhoea, no. of patients: 1
  Fatigue, no. of patients: 2
  Leukopenia, no. of patients: 2
  Lymphopenia, no. of patients: 5
  Mucositis, no. of patients: 1
  Myositis, no. of patients: 0
  Nausea, no. of patients: 0
  Neutropenia, no. of patients: 1
  QT prolongation, no. of patients: 1
  Supra ventricular arrythmia, no. of patients: 0
  Syncope, no. of patients: 0
  Thrombocytopenia, no. of patients: 2
  Ventricular arrythmias (PVCs), no. of patients: 1 ^c
  Ventricular bigemini, no. of patients: 1 ^c
  Vomiting, no. of patients: 0
[3]
  ALT (raised), no. of patients: 2
  AST (raised), no. of patients: 3
  Abdominal pain, no. of patients: 0
  Alkaline phophatase (raised), no. of patients: 4
  Altered taste, no. of patients: 1
  Anaemia, no. of patients: 5
  Anorexia, no. of patients: 2
  Bilirubin (raised), no. of patients: 1
  CPK, no. of patients: 1
  Cardiac arrythmia other, no. of patients: 0
  Cardiac dysfunction, no. of patients: 0
  Cardiac ischaemia, no. of patients: 0
  Constipation, no. of patients: 0
  Creatinine (raised), no. of patients: 1
  Diarrhoea, no. of patients: 1
  Fatigue, no. of patients: 2
  Leukopenia, no. of patients: 1
  Lymphopenia, no. of patients: 2
  Mucositis, no. of patients: 0
  Myositis, no. of patients: 1
  Nausea, no. of patients: 2
  Neutropenia, no. of patients: 1
  QT prolongation, no. of patients: 0
  Supra ventricular arrythmia, no. of patients: 0
  Syncope, no. of patients: 1
  Thrombocytopenia, no. of patients: 1
  Ventricular arrythmias (PVCs), no. of patients: 0
  Ventricular bigemini, no. of patients: 0
  Vomiting, no. of patients: 1
[4]
  ALT (raised), no. of patients: 2
  AST (raised), no. of patients: 1
  Abdominal pain, no. of patients: 0
  Alkaline phophatase (raised), no. of patients: 2
  Altered taste, no. of patients: 0
  Anaemia, no. of patients: 4
  Anorexia, no. of patients: 0
  Bilirubin (raised), no. of patients: 1
  CPK, no. of patients: 1
  Cardiac arrythmia other, no. of patients: 0
  Cardiac dysfunction, no. of patients: 0
  Cardiac ischaemia, no. of patients: 0
  Constipation, no. of patients: 0
  Creatinine (raised), no. of patients: 2
  Diarrhoea, no. of patients: 1
  Fatigue, no. of patients: 1
  Leukopenia, no. of patients: 2
  Lymphopenia, no. of patients: 2
  Mucositis, no. of patients: 0
  Myositis, no. of patients: 0
  Nausea, no. of patients: 0
  Neutropenia, no. of patients: 2
  QT prolongation, no. of patients: 0
  Supra ventricular arrythmia, no. of patients: 0
  Syncope, no. of patients: 0
  Thrombocytopenia, no. of patients: 0
  Ventricular arrythmias (PVCs), no. of patients: 0
  Ventricular bigemini, no. of patients: 0
  Vomiting, no. of patients: 0
[5]
  ALT (raised), no. of patients: 0
  AST (raised), no. of patients: 2
  Abdominal pain, no. of patients: 0
  Alkaline phophatase (raised), no. of patients: 2
  Altered taste, no. of patients: 0
  Anaemia, no. of patients: 4
  Anorexia, no. of patients: 1
  Bilirubin (raised), no. of patients: 0
  CPK, no. of patients: 0
  Cardiac arrythmia other, no. of patients: 0
  Cardiac dysfunction, no. of patients: 0
  Cardiac ischaemia, no. of patients: 0
  Constipation, no. of patients: 0
  Creatinine (raised), no. of patients: 0
  Diarrhoea, no. of patients: 0
  Fatigue, no. of patients: 3
  Leukopenia, no. of patients: 1
  Lymphopenia, no. of patients: 4
  Mucositis, no. of patients: 0
  Myositis, no. of patients: 0
  Nausea, no. of patients: 2
  Neutropenia, no. of patients: 1
  QT prolongation, no. of patients: 0
  Supra ventricular arrythmia, no. of patients: 0
  Syncope, no. of patients: 0
  Thrombocytopenia, no. of patients: 0
  Ventricular arrythmias (PVCs), no. of patients: 0
  Ventricular bigemini, no. of patients: 0
  Vomiting, no. of patients: 2
[6]
  ALT (raised), no. of patients: 4
  AST (raised), no. of patients: 5
  Abdominal pain, no. of patients: 0
  Alkaline phophatase (raised), no. of patients: 6
  Altered taste, no. of patients: 1
  Anaemia, no. of patients: 7
  Anorexia, no. of patients: 4
  Bilirubin (raised), no. of patients: 2
  CPK, no. of patients: 0
  Cardiac arrythmia other, no. of patients: 1
  Cardiac dysfunction, no. of patients: 0
  Cardiac ischaemia, no. of patients: 0
  Constipation, no. of patients: 0
  Creatinine (raised), no. of patients: 2
  Diarrhoea, no. of patients: 4
  Fatigue, no. of patients: 6
  Leukopenia, no. of patients: 5
  Lymphopenia, no. of patients: 6
  Mucositis, no. of patients: 0
  Myositis, no. of patients: 0
  Nausea, no. of patients: 5
  Neutropenia, no. of patients: 5
  QT prolongation, no. of patients: 1
  Supra ventricular arrythmia, no. of patients: 0
  Syncope, no. of patients: 0
  Thrombocytopenia, no. of patients: 5
  Ventricular arrythmias (PVCs), no. of patients: 0
  Ventricular bigemini, no. of patients: 0
  Vomiting, no. of patients: 4
[7]
  ALT (raised), no. of patients: 1
  AST (raised), no. of patients: 2
  Abdominal pain, no. of patients: 0
  Alkaline phophatase (raised), no. of patients: 3
  Altered taste, no. of patients: 0
  Anaemia, no. of patients: 6
  Anorexia, no. of patients: 3
  Bilirubin (raised), no. of patients: 0
  CPK, no. of patients: 1
  Cardiac arrythmia other, no. of patients: 0
  Cardiac dysfunction, no. of patients: 0
  Cardiac ischaemia, no. of patients: 0
  Constipation, no. of patients: 0
  Creatinine (raised), no. of patients: 2
  Diarrhoea, no. of patients: 0
  Fatigue, no. of patients: 4
  Leukopenia, no. of patients: 3
  Lymphopenia, no. of patients: 4
  Mucositis, no. of patients: 1
  Myositis, no. of patients: 0
  Nausea, no. of patients: 4
  Neutropenia, no. of patients: 3
  QT prolongation, no. of patients: 1
  Supra ventricular arrythmia, no. of patients: 0
  Syncope, no. of patients: 0
  Thrombocytopenia, no. of patients: 6
  Ventricular arrythmias (PVCs), no. of patients: 0
  Ventricular bigemini, no. of patients: 0
  Vomiting, no. of patients: 2
[8]
  ALT (raised), no. of patients: 2
  AST (raised), no. of patients: 2
  Abdominal pain, no. of patients: 0
  Alkaline phophatase (raised), no. of patients: 1
  Altered taste, no. of patients: 1
  Anaemia, no. of patients: 2
  Anorexia, no. of patients: 1
  Bilirubin (raised), no. of patients: 1
  CPK, no. of patients: 1
  Cardiac arrythmia other, no. of patients: 1
  Cardiac dysfunction, no. of patients: 1
  Cardiac ischaemia, no. of patients: 1
  Constipation, no. of patients: 0
  Creatinine (raised), no. of patients: 2
  Diarrhoea, no. of patients: 0
  Fatigue, no. of patients: 2 ^c
  Leukopenia, no. of patients: 1
  Lymphopenia, no. of patients: 2
  Mucositis, no. of patients: 0
  Myositis, no. of patients: 0
  Nausea, no. of patients: 2
  Neutropenia, no. of patients: 1
  QT prolongation, no. of patients: 1
  Supra ventricular arrythmia, no. of patients: 1
  Syncope, no. of patients: 0
  Thrombocytopenia, no. of patients: 2
  Ventricular arrythmias (PVCs), no. of patients: 1
  Ventricular bigemini, no. of patients: 1
  Vomiting, no. of patients: 2 ^c
[9]
  ALT (raised), no. of patients: 0
  AST (raised), no. of patients: 0
  Abdominal pain, no. of patients: 0
  Alkaline phophatase (raised), no. of patients: 0
  Altered taste, no. of patients: 0
  Anaemia, no. of patients: 0
  Anorexia, no. of patients: 0
  Bilirubin (raised), no. of patients: 0
  Cardiac arrythmia other, no. of patients: 0
  Cardiac dysfunction, no. of patients: 0
  Cardiac ischaemia, no. of patients: 0
  Constipation, no. of patients: 0
  Creatinine (raised), no. of patients: 0
  Diarrhoea, no. of patients: 0
  Fatigue, no. of patients: 0
  Leukopenia, no. of patients: 0
  Lymphopenia, no. of patients: 0
  Mucositis, no. of patients: 0
